According to ChEMBL document CHEMBL3832540, “DailyMed|setid=3ce9ee32-b18b-4ef3-b127-ce479d520e1a | BRILINTA- ticagrelor tablet|Bryant Ranch Prepack”:

Key:
[1] = (§1) Evaluation of pharmacokinetic parameters for Ticagrelor following oral administration of Ticagrelor tablets (BRILINTA); assay type: ADME, organism-based; details: human, in vivo, dosed compound id 12, dosed compound name TICAGRELOR, tissue Plasma
Homo sapiens = assay: as §1; assay type: ADME, organism-based; details: in vivo, po, dosed compound id 12, dosed compound name TICAGRELOR, tissue Plasma

CCCSc1nc(N[C@@H]2C[C@H]2c2ccc(F)c(F)c2)c2nnn([C@@H]3C[C@H](OCCO)[C@@H](O)[C@H]3O)c2n1 [TICAGRELOR]
Tmax [1]: 1.5 h | bioavailability [1]: 36% | half-life [1]: 7 h | Protein bound (Homo sapiens): 99% | Vd (Homo sapiens): 88 L
